The text below walks through data of patent US20210269479A1, “USE OF CY[…] FOR TREATING CANCER” (Hepion Pharmaceuticals, Inc., priority 2020, published 2021).

The subject of assay [1] is human precision cut liver slices (PCLS). The experiment in a line: Sirius red histological staining of PCLS (tissue fibrosis). Format: cell-based. The protocol:
(§1) PCLS were obtained from 5 human donors who underwent resection of liver cancer. Replicate slices were collected from healthy margins of the resections and cultured for 4 or 6 days depending on the experimental protocol. In the Nonstimulation Protocol slices were cultured for 6 days and treated for the entire period with DMSO vehicle or 5 μM CRV431. In the Stimulation Protocol slices were rested for 1 day and then administered the cytokines, TGFβ and PDGF-BB, for 3 days to stimulate inflammation and fibrosis. DMSO vehicle, CRV431 (1 and 5 μM), Alk5i (10 μM), obeticholic acid (5 μM), elafibranor (5 μM), resmetirom (5 μM), and Aramchol (5 μM) were administered individually as drug treatments in the Stimulation Protocol concurrent with TGFβ+PDGF-BB. Culture medium treatments were replaced daily.
(b) Sirius red histological staining. […] Sirius red was quantified morphometrically in the histological sections as the percentage area with Sirius red staining in 10 sections from each treatment. In the Nonstimulation Protocol the quantity of Sirius red staining was expressed relative to the vehicle group. In the Stimulation Protocol the quantity of Sirius red staining was expressed relative to nonstimulated PCLS (0%) and TGFβ+PDGF-BB-stimulated+vehicle PCLS (100%). Results are shown in FIG. 1B (Sirius red staining for tissue fibrosis).

Assay [2] has the same test system. Put plainly: Gene expression in PCLS by RT-PCR. The assay is classed as cell-based. Particulars: collagen1α1, αSMA, TIMP1, IL-6, MCP-1. The protocol:
as §1
(c) Gene expression by RT-PCR. RNA was isolated from duplicate liver slices per treatment at the end of the experiments and evaluated by RT-PCR for 5 markers of inflammation and fibrosis: MCP-1, IL-6, TIMP1, αSMA, and collagen 1α1. β actin was used as a reference gene to calculate relative levels of each target gene RNA. […] Results are shown in FIG. 1C (gene expression by RT-PCR).

For assay [3], the system named is HepG2 hepatocellular carcinoma cells. Particulars: 4 days, strongest with 0.37 μM daunorubicin and CRV431 0.25-4 μM. The protocol: (§2) HepG2 hepatocellular carcinoma cell lines and Huh7 hepatocellular carcinoma cell lines were plated in 96 well plates at subconfluent densities. The chemotherapy compound, daunorubicin, and CRV431 were applied alone or in combination at the indicated concentrations in duplicate wells for each treatment. After 4 days incubation, cell viability was assessed with Cell Titer Glo 2.0.

Assay [4] concerns Huh7 hepatocellular carcinoma cells. Particulars: 4 days, strongest with 0.37 μM daunorubicin and CRV431 1-4 μM. The protocol:
as §2

Assay [5] deals with liver tumors (likely hepatocellular carcinoma). The experiment in a line: Liver tumor burden in streptozotocin/high-fat diet NASH mice. The assay is classed as in vivo, C57BL/6J male mice. The protocol: NASH was initiated in 2-day-old C57BL/6J male mice by intraperitoneal injection with […] streptozotocin (S0130; Sigma-Aldrich) to disrupt pancreatic β cells, induce diabetes, and promote adiposity in the liver. Mice were weaned at 3 weeks of age and begun on a high-fat diet with 60% kcal fat (D12492N; Research Diets) for the duration of the studies. Additionally, mice with a regular diet (D12450KN; Research Diets) and without streptozotocin were included as negative controls. CRV431 was dissolved in a self-microemulsifying drug vehicle and then diluted with PBS and administered daily by oral gavage at 50 mg/kg per day. The start time and duration of vehicle and CRV431 treatments varied depending on the study.
In two separate experiments, tumor burden at the end of treatment was assessed by the number of tumors (FIGS. 11A and 12A) and a composite score based on the number and size of tumors (0-7 scale; FIGS. 11B and 12B).

Setting [6] is: 50 mg/kg per day oral gavage, weeks 20 to 30.

“Also recorded” adds a separate entry of the source.

In the case of `CC[C@@H]1NC(=O)[C@H]([C@H](O)[C@H](C)CCCCCCNC(C)=O)N(C)C(=O)[C@H](C(C)C)N(C)C(=O)[C@H](CC(C)C)N(C)C(=O)[C@H](CC(C)C)N(C)C(=O)[C@@H](C)NC(=O)[C@H](C)NC(=O)[C@H](CC(C)C)N(C)C(=O)[C@H](C(C)C)NC(=O)[C@H](CC(C)C)N(C)C(=O)[C@@H](C)N(C)C1=O` [CRV431], the “tissue fibrosis vs vehicle-treated slices” value in assay [1] (6 days of culture, absence of exogenous TGFβ+PDGF-BB) is “less fibrosis than vehicle-treated slices”. Besides, in assay [1] (Stimulation Protocol, compared with other NASH drug candidates), the “prevention of TGFβ+PDGF-BB-induced tissue fibrosis” value is listed as “most effective of five NASH drug candidates”. Besides, in assay [2], the “RNA levels of inflammation and fibrosis markers by qRT-PCR” value was “reductions in RNA levels of collagen1α1, αSMA, TIMP1, IL-6, and MCP-1; also recorded: decreased the mean daily secretion and gene expression of all markers”. Further, the “effect on cytotoxicity of daunorubicin” value in assay [3] was “increased the cytotoxicity of daunorubicin”. In addition, the “effect on cytotoxicity of daunorubicin” value in assay [4] is “increased the cytotoxicity of daunorubicin”. Also, in assay [5] (setting [6]), the “decrease of tumor burden (score combining tumor number and size)” value came out at 52%; the livers lacking tumors is listed as 2 of 10; the “number of liver tumors vs vehicle” value is listed as “half the number of tumors”; the “tumor size vs vehicle” value was “smaller tumors on average”. In addition, in assay [5] (50 mg/kg/day, end of treatment), the “Tumor number, mean” value is reported as 4.80 and the “Tumor score, mean (0-7 scale)” value came to 2.40.
